The source of these data is article PMC12668304, “A Triple Threat Against Ovarian Cancer: Os(II)‐Pt(IV)‐Ceritinib Conjugates for Photodynamic Therapy, Chemotherapy, and Immunogenic Cell Death Induction” (Angewandte Chemie (International Ed. in English), 2025).

Molecules are shown by their SMILES.

In the assay the test system is calreticulin (CRT) exposure on MCA205 cells. The assay can be described thus: Externalisation of calreticulin (confocal microscopy, anti-CRT antibody). It counts as cell-based, mouse. The conditions noted are these: positive control, light condition not stated. How it is done:
Surface exposure of CRT was measured via confocal fluorescence microscopy after staining with an anti‐CRT antibody (ab2907). […] The surface exposure in the dark might be due to the oxaliplatin, a bona fide ICD inducer. Specifically, CRT expression increased by 67% upon irradiation and 63% in the dark, compared with non‐treated cells.
Figure 8 Translocation and changes in calreticulin (CRT) exposure on MCA205 cells determined by confocal fluorescence microscopy after 4 h treatment under dark (−L) and light (+L) (740 nm, 1 h) conditions, and an additional 16 h of incubation. DAPI: Nuclear fluorescence dye. Scale bar: 20 µm.
The localisation of the different parts of the studied complexes was determined by measuring the Os and Pt content inside A2780 cells via ICP-MS. […] After this time, the cells were trypsinized and counted. […] In parallel, the content of Os and Pt was determined in a total cell extraction (2·10 6 cells). […] The Os and Pt content was determined using an ICP -MS apparatus and comparing the results with the Os and Pt calibration standards.
A2780 cells were seeded in a 12-well plate to obtain a 90 –100% confluency. […] The cells were monitored by imaging over the following time intervals: 0, 6, 24, 32, and 48 h. […]
Extracellular ATP released from treated MCA205 and A2780 cells was detected by the luminescent ATP assay kit (ab113849). […]

`O=C1[O][Pt]2([NH][C@@H]3CCCC[C@H]3[NH]2)[O]C1=O` [Oxaliplatin]: the CRT increase is recorded as 21%.
